From patent publication US12220419B2, “BCL-2 inhibitors” (Newave Pharmaceutical Inc., priority 2018, dated 2025)
Read-outs that look alike come from different tables or passages of the source.

Legend:
BCL-2 = BCL-2 (Homo sapiens (Human), UniProt P10415); test: BCL-2 competition binding (fluorescence polarization) assay; conditions: read-out: BCL2 IC50
Procedure: Biological Example 1: BCL-2 Competition Binding (Fluorescence Polarization) Assay
The fluorescence-labeled 23 amino acid peptide BH3 was purchased from CalBiochem ([…]). […] This binding assay was performed in 96-well plate and with each assay contained 15 and 30 nM of labeled peptide and purified BCL-2 protein (purchased from R&D Systems, Inc). The assay buffer contained 20 mM Hepes (pH 7.0), 50 mM KCl, 5 mM MgCl2, 20 mM Na2MoO4, 0.1 mg/ml Bovine Gamma Globulin and 0.01% NP40. Compounds were diluted in DMSO and added to the final assay with concentration range from 20 μM to 2 nM. The polarization degree (mP) value was determined by BioTek Synergy II with background subtraction after 3 hours of incubation at room temperature. IC50 was calculated using Prism software with sigmoidal dose-response curve fitting. ABT-737 was used as reference compound. Such assays, carried out with a range of doses of test compounds, allowed the determination of an approximate IC50 value.

[1] = test system: BCL-2-dependent acute lymphoblastic leukemia (ALL) cell line RS4;11; test: In vitro anti-proliferation assay (ATPlite luminescence) in RS4;11; assay type: cell-based; conditions: RS4;11 cells, about 72 hours, medium with 5% FBS or 10% normal human serum
Procedure: Cell antiproliferation was assayed by PerkinElmer ATPlite™ Luminescence Assay System. Briefly, the various test cancer cell lines were plated at a density of about 1×10^4 cells per well in Costar 96-well plates, and were incubated with different concentrations of compounds for about 72 hours in medium supplemented with 5% FBS or 10% normal human serum (NHS). One lyophilized substrate solution vial was then reconstituted by adding 5 mL of substrate buffer solution, and was agitated gently until the solution was homogeneous. About 50 μL of mammalian cell lysis solution was added to 100 μL of cell suspension per well of a microplate, and the plate was shaken for about five minutes in an orbital shaker at 700 rpm. This procedure was used to lyse the cells and to stabilize the ATP. Next, 50 μL substrate solution was added to the wells and microplate was shaken for five minutes in an orbital shaker at 700 rpm. Finally, the luminescence was measured by a PerkinElmer TopCount® Microplate Scintillation Counter. Such assays, carried out with a range of doses of test compounds, allowed the determination of the cellular anti-antiproliferative IC50 of the compounds of the present invention.

[2] = fluorescein-labeled BH3 peptide 15 nM, purified BCL-2 protein 30 nM, 3 hours incubation at room temperature

BCL-2, sequence (P10415 whole entry): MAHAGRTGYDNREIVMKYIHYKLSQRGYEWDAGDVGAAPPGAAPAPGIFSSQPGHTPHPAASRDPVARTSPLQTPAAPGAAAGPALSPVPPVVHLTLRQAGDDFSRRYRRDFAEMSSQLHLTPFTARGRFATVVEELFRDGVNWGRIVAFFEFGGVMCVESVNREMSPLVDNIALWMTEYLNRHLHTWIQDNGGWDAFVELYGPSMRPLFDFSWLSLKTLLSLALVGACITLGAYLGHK

In the case of `CC1(C)CCC(CN2CCN(c3ccc(C(=O)NS(=O)(=O)c4ccc(NCCOCCOCCOCCNc5cccc6c5C(=O)N(C5CCC(=O)NC5=O)C6=O)c([N+](=O)[O-])c4)c(N4CCCOc5nc6[nH]ccc6cc54)c3)CC2)=C(c2ccc(Cl)cc2)C1` (stereo not shown) [Example 53, 4-(4-[[2-(4-chlorophenyl)-4,4-dimethylcyclohex-1-en-1-yl]methyl]piperazin-1-yl)-N-[4-(12-[[2-(2,6-dioxopiperidin-3-yl)-1,3-dioxoisoindol-4-yl]amino]-4,7,10-trioxa-1-azadodecan-1-yl)-3-nitrobenzenesulfonyl]-2-[14-oxa-2,4,10-triazatricyclo[7.5.0.0^[3,7]]tetradeca-1(9),2,5,7-tetraen-10-yl]benzamide], the IC50 (BCL-2; [2]) is reported as 1.2 nM and the IC50 [1] is reported as 79 nM.

`Cc1ncsc1-c1ccc(CNC(=O)[C@@H]2C[C@@H](O)CN2C(=O)[C@@H](NC(=O)CCOCCOCCOCCN2CCN(CCNc3ccc(S(=O)(=O)NC(=O)c4ccc(N5CCN(CC6=C(c7ccc(Cl)cc7)CC(C)(C)CC6)CC5)cc4N4CCCOc5nc6[nH]ccc6cc54)cc3[N+](=O)[O-])CC2)C(C)(C)C)cc1` [Example 54] gave an IC50 (BCL-2; [2]) of 0.6 nM and an IC50 [1] of 49.6 nM.

`Cc1ncsc1-c1ccc(CNC(=O)[C@@H]2C[C@@H](O)CN2C(=O)[C@@H](NC(=O)CCOCCOCCOCCOCCOCCNc2ccc(S(=O)(=O)NC(=O)c3ccc(N4CCN(CC5=C(c6ccc(Cl)cc6)CC(C)(C)CC5)CC4)cc3N3CCCOc4nc5[nH]ccc5cc43)cc2[N+](=O)[O-])C(C)(C)C)cc1` [Example 55, (2S,4R)-1-[(2S)-2-[1-[(4-[[4-(4-[[2-(4-chlorophenyl)-4,4-dimethylcyclohex-1-en-1-yl]methyl]piperazin-1-yl)-2-[14-oxa-2,4,10-triazatricyclo[7.5.0.0^[3,7]]tetradeca-1(9),2,5,7-tetraen-10-yl]phenyl]formamidosulfonyl]-2-nitrophenyl)amino]-3,6,9,12,15-pentaoxaoctadecan-18-amido]-3,3-dimethylbutanoyl]-4-hydroxy-N-[[4-(4-methyl-1,3-thiazol-5-yl)phenyl]methyl]pyrrolidine-2-carboxamide] gave an IC50 (BCL-2; [2]) of 1.1 nM and an IC50 [1] of 75 nM.

For `Cc1ncsc1-c1ccc(CNC(=O)[C@@H]2C[C@@H](O)CN2C(=O)[C@@H](NC(=O)CCOCCOCCN2CCN(CCNc3ccc(S(=O)(=O)NC(=O)c4ccc(N5CCN(CC6=C(c7ccc(Cl)cc7)CC(C)(C)CC6)CC5)cc4N4CCCOc5nc6[nH]ccc6cc54)cc3[N+](=O)[O-])CC2)C(C)(C)C)cc1` [Example 56], the IC50 (BCL-2; [2]) was 0.4 nM and the IC50 [1] was 63.7 nM.

Compound `Cc1ncsc1-c1ccc(CNC(=O)[C@@H]2C[C@@H](O)CN2C(=O)[C@@H](NC(=O)CCOCCOCCOCCOCCNc2ccc(S(=O)(=O)NC(=O)c3ccc(N4CCN(CC5=C(c6ccc(Cl)cc6)CC(C)(C)CC5)CC4)cc3N3CCCOc4nc5[nH]ccc5cc43)cc2[N+](=O)[O-])C(C)(C)C)cc1` [Example 57, (2S,4R)-1-[(2S)-2-[1-[(4-[[4-(4-[[2-(4-chlorophenyl)-4,4-dimethylcyclohex-1-en-1-yl]methyl]piperazin-1-yl)-2-[14-oxa-2,4,10-triazatricyclo[7.5.0.0^[3,7]]tetradeca-1(9),2,5,7-tetraen-10-yl]phenyl]formamidosulfonyl]-2-nitrophenyl)amino]-3,6,9,12-tetraoxapentadecan-15-amido]-3,3-dimethylbutanoyl]-4-hydroxy-N-[[4-(4-methyl-1,3-thiazol-5-yl)phenyl]methyl]pyrrolidine-2-carboxamide] has an IC50 (BCL-2; [2]) of 0.5 nM and an IC50 [1] of 68 nM.

`Cc1ncsc1-c1ccc(CNC(=O)[C@@H]2C[C@@H](O)CN2C(=O)[C@@H](NC(=O)CCOCCN2CCN(CCNc3ccc(S(=O)(=O)NC(=O)c4ccc(N5CCN(CC6=C(c7ccc(Cl)cc7)CC(C)(C)CC6)CC5)cc4N4CCCOc5nc6[nH]ccc6cc54)cc3[N+](=O)[O-])CC2)C(C)(C)C)cc1` [Example 58] was tested, and the IC50 (BCL-2; [2]) was 0.3 nM and the IC50 [1] was 102 nM.

For `Cc1ncsc1-c1ccc(CNC(=O)[C@@H]2C[C@@H](C)CN2C(=O)[C@@H](NC(=O)CCOCCOCCOCCNc2ccc(S(=O)(=O)NC(=O)c3cc(N4CCN(CC5=C(c6ccc(Cl)cc6)CC(C)(C)CC5)CC4)ccc3N3CCCOc4nc5[nH]ccc5cc43)cc2[N+](=O)[O-])C(C)(C)C)cc1` [Example 59, (2S,4R)-1-[(2S)-2-[3-[2-(2-[2-[(4-[[5-(4-[[2-(4-chlorophenyl)-4,4-dimethylcyclohex-1-en-1-yl]methyl]piperazin-1-yl)-2-[14-oxa-2,4,10-triazatricyclo[7.5.0.0^[3,7]]tetradeca-1(9),2,5,7-tetraen-10-yl]phenyl]formamidosulfonyl]-2-nitrophenyl)amino]ethoxy]ethoxy)ethoxy]propanamido]-3,3-dimethylbutanoyl]-4-methyl-N-[[4-(4-methyl-1,3-thiazol-5-yl)phenyl]methyl]pyrrolidine-2-carboxamide], the IC50 (BCL-2; [2]) was 1.1 nM and the IC50 [1] was 84 nM.

`CC1(C)CCC(CN2CCN(c3ccc(C(=O)NS(=O)(=O)c4ccc(NCC5CCOCC5)c([N+](=O)[O-])c4)c(N4CCCCOc5nc6[nH]ccc6cc54)c3)CC2)=C(c2ccc(Cl)cc2)C1` [Example 69, 4-(4-[[2-(4-chlorophenyl)-4,4-dimethylcyclohex-1-en-1-yl]methyl]piperazin-1-yl)-N-(3-nitro-4-[[(oxan-4-yl)methyl]amino]benzenesulfonyl)-2-[15-oxa-2,4,10-triazatricyclo[7.6.0.0^[3,7]]pentadeca-1(9),2,5,7-tetraen-10-yl]benzamide] gave an IC50 (BCL-2) of 0.6 nM and an IC50 [1] of 28.6 nM.

`Cn1c(=O)c2nc3[nH]ccc3cc2n1-c1cc(N2CCN(CC3=C(c4ccc(Cl)cc4)CC(C)(C)CC3)CC2)ccc1C(=O)NS(=O)(=O)c1ccc(NC[C@H]2COCCO2)c([N+](=O)[O-])c1` [Example 70, 4-(4-[[2-(4-chlorophenyl)-4,4-dimethylcyclohex-1-en-1-yl]methyl]piperazin-1-yl)-N-(4-[[(2S)-1,4-dioxan-2-ylmethyl]amino]-3-nitrobenzenesulfonyl)-2-[11-methyl-12-oxo-2,4,10,11-tetraazatricyclo[7.3.0.0^[3,7]]dodeca-1,3(7),5,8-tetraen-10-yl]benzamide] showed an IC50 (BCL-2; [2]) of 0.1 nM and an IC50 [1] of 186 nM.

Compound `CC1(C)CCC(CN2CCN(c3ccc(C(=O)NS(=O)(=O)c4ccc(NC[C@H]5COCCO5)c([N+](=O)[O-])c4)c(-n4c5ccncc5c5nc6[nH]ccc6cc54)c3)CC2)=C(c2ccc(Cl)cc2)C1` [Example 71, 4-(4-[[2-(4-chlorophenyl)-4,4-dimethylcyclohex-1-en-1-yl]methyl]piperazin-1-yl)-N-(4-[[(2S)-1,4-dioxan-2-ylmethyl]amino]-3-nitrobenzenesulfonyl)-2-[4,8,14,16-tetraazatetracyclo[7.7.0.0^[2,7].0[11,15]]hexadeca-1(16),2(7),3,5,9,11(15),12-heptaen-8-yl]benzamide] has an IC50 (BCL-2; [2]) of 0.6 nM and an IC50 [1] of 192 nM.

For `CC1(C)CC(c2ccc(Cl)cc2)=C(CN2CCN(c3ccc(C(=O)NS(=O)(=O)c4ccc(NC[C@H]5COCCO5)c([N+](=O)[O-])c4)c(N4CCCOc5nc6[nH]ccc6cc54)c3)CC2)CO1` [Example 72, 4-(4-[[4-(4-chlorophenyl)-6,6-dimethyl-2,5-dihydropyran-3-yl]methyl]piperazin-1-yl)-N-(4-[[(2S)-1,4-dioxan-2-ylmethyl]amino]-3-nitrobenzenesulfonyl)-2-[14-oxa-2,4,10-triazatricyclo[7.5.0.0^[3,7]]tetradeca-1(9),2,5,7-tetraen-10-yl]benzamide], the IC50 (BCL-2) was 0.01 nM and the IC50 [1] was 0.3 nM.
